Measured values taken from publication PMC2361651 (British Journal of Cancer, 2005).
Several values for one entry are separate records, joined by “and”; a condition that tells them apart may be missing. Identical values can stand only once. Like-named read-outs stand apart in the source and are kept apart here.

Experiment: Plasma pharmacokinetics of SU5416 and metabolites in Phase I patients (HPLC UV)
Assay type: in vivo, human
Conditions: twice weekly i.v. infusion; for half-life: read-out: T1/2λz (converted); for clearance: read-out: CL (observed) (converted); for Vd: read-out: Vz (observed)
Protocol: Samples were taken prior to treatment infusion, 15 min into the infusion, at completion of the infusion and then at 5, 10, 20, 30, 45, 60, 120 and 240 min following the infusion. […] At the designated times, 4.0 ml of blood were collected into a lithium heparin tube, gently inverted and placed on ice to maintain the sample at 2–8°C. All samples were immediately centrifuged at 6000 r.p.m. at 4°C for 10 min, the supernatant divided between two 1.5 ml Nalgene cryovials and snap frozen in liquid nitrogen. Separated plasma samples were subsequently stored at −70°C until analysis.
Pharmacokinetic analysis was performed using a fully validated HPLC UV method ([Stopeck et al, 2002]). Plasma samples, standards (25–2000 ng ml^−1) and quality controls spiked with internal standards were extracted with acetonitrile. Following centrifugation, drying and reconstitution in 200 μl mobile phase, 20 μl were analysed by HPLC UV. Chromatography was carried out using a C18 analytical column, with a gradient mobile phase containing acetonitrile and 10 mM ammonium formate at pH 2.6. The flow rate was 0.8 ml min^−1 and the run-time 21 min. Detection was via UV absorption at a wavelength of 440 nm. The accuracy of the assay, reflected in relative error of measured concentration to theoretical (prepared) concentrations, was between 0.9 and 5.6% for all quality control samples.
Pharmacokinetic parameters were evaluated using WinNonLin Software®.

[1] = human, plasma, iv, 85 mg m^−2, individual patients, dose 85 mg m^−2, cycle 1inj8
[2] = human, plasma, iv, 85 mg m^−2, individual patients, dose 85 mg m^−2, cycle 2inj8
[3] = human, plasma, iv, 110 mg m^−2, individual patients, dose 110 mg m^−2, cycle 1inj2
[4] = human, plasma, iv, 110 mg m^−2, individual patients, dose 110 mg m^−2, cycle 1inj8
[5] = individual patients, dose 48 mg m^−2, cycle 1inj2
[6] = individual patients, dose 48 mg m^−2, cycle 1inj8
[7] = individual patients, dose 65 mg m^−2, cycle 1inj2
[8] = individual patients, dose 65 mg m^−2, cycle 1inj8
[9] = individual patients, dose 85 mg m^−2, cycle 1inj2
[10] = individual patients, dose 85 mg m^−2, cycle 1inj8
[11] = individual patients, dose 110 mg m^−2, cycle 1inj2
[12] = individual patients, dose 145 mg m^−2, cycle 1inj2
[13] = individual patients, dose 145 mg m^−2, cycle 1inj8
[14] = individual patients, dose 145 → 190 mg m^−2, cycle 1inj2
[15] = individual patients, dose 145 → 190 mg m^−2, cycle 1inj8

Cc1cc(C)c(/C=C2\C(=O)Nc3ccccc32)[nH]1 [SU5416, Z-3-[(2,4-dimethylpyrrol-5-yl)methylidenyl]-2-indolinone]
Cmax (human, plasma, iv, 85 mg m^−2, individual patients, dose 85 mg m^−2, cycle 1inj2, read-out: Cmax): 2340 ng/mL | half-life (human, plasma, iv, 85 mg m^−2, individual patients, dose 85 mg m^−2, cycle 1inj2): 23.4 min | AUC(0-t) [1]: 2380 ng·h/mL | clearance [1]: 1000 mL/min | AUC(0-t) [2]: 1620 ng·h/mL | clearance [2]: 1470 mL/min | Cmax (human, plasma, iv, 85 mg m^−2, individual patients, dose 85 mg m^−2, cycle 2inj8, read-out: Cmax): 2800 ng/mL | half-life [2]: 44.4 min | Vd [2]: 94 L | AUC(0-t) [3]: 4020 ng·h/mL | clearance [3]: 767 mL/min | Cmax (human, plasma, iv, 110 mg m^−2, individual patients, dose 110 mg m^−2, cycle 1inj2, read-out: Cmax): 3510 ng/mL | half-life [3]: 37.2 min | Vd [3]: 41 L | AUC(0-t) [4]: 3800 ng·h/mL | clearance [4]: 1400 mL/min | Cmax (human, plasma, iv, 110 mg m^−2, individual patients, dose 110 mg m^−2, cycle 1inj8, read-out: Cmax): 3580 ng/mL | half-life [4]: 37.2 min | Vd [4]: 75 L | AUClast [5]: 463 ng·h/mL and 848 ng·h/mL and 1143 ng·h/mL | CL (observed) [5]: 181 L/h and 94 L/h and 83 L/h | Cmax [5]: 2724 ng/mL and 2253 ng/mL | T1/2λz [5]: 30.6 min and 36.6 min | Vz (observed) [5]: 72 L | CL (observed) [6]: 115 L/h | Cmax [6]: 1289 ng/mL | T1/2λz [6]: 25.2 min | AUClast [7]: 2510 ng·h/mL | CL (observed) [7]: 74 L/h | Cmax [7]: 2968 ng/mL | T1/2λz [7]: 49.2 min | Vz (observed) [7]: 88 L | AUClast [8]: 2068 ng·h/mL | CL (observed) [8]: 89 L/h | Cmax [8]: 2914 ng/mL | T1/2λz [8]: 39 min | Vz (observed) [8]: 84 L | AUClast [9]: 1151 ng·h/mL and 2094 ng·h/mL | CL (observed) [9]: 133 L/h and 102 L/h | Cmax [9]: 1624 ng/mL and 2057 ng/mL | T1/2λz [9]: 42.6 min | Vz (observed) [9]: 45 L and 136 L and 104 L | AUClast [10]: 1250 ng·h/mL | Cmax [10]: 3672 ng/mL and 1354 ng/mL | T1/2λz [10]: 36 min and 123 min | Vz (observed) [10]: 52 L and 447 L | AUClast [11]: 2345 ng·h/mL and 3842 ng·h/mL | CL (observed) [11]: 70 L/h and 83 L/h | Cmax [11]: 2750 ng/mL and 3237 ng/mL | T1/2λz [11]: 41.4 min and 33 min | Vz (observed) [11]: 70 L and 66 L | AUClast [12]: 4946 ng·h/mL and 3471 ng·h/mL and 2021 ng·h/mL | CL (observed) [12]: 55 L/h and 92 L/h and 150 L/h | Cmax [12]: 4851 ng/mL and 2869 ng/mL and 1217 ng/mL | T1/2λz [12]: 53.4 min and 42.6 min | Vz (observed) [12]: 119 L and 153 L | AUClast [13]: 2349 ng·h/mL | CL (observed) [13]: 62 L/h and 169 L/h | Cmax [13]: 2080 ng/mL | T1/2λz [13]: 40.2 min | Vz (observed) [13]: 51 L and 164 L | AUClast [14]: 3389 ng·h/mL and 1928 ng·h/mL and 3683 ng·h/mL and 3397 ng·h/mL and 2621 ng·h/mL and 2870 ng·h/mL and 2465 ng·h/mL and 1267 ng·h/mL and 4094 ng·h/mL and 1578 ng·h/mL | Cmax [14]: 4159 ng/mL and 2474 ng/mL and 2961 ng/mL and 2774 ng/mL and 2894 ng/mL and 2795 ng/mL and 3202 ng/mL and 1177 ng/mL and 4508 ng/mL and 2625 ng/mL | T1/2λz [14]: 40.8 min and 30 min and 47.4 min and 39.6 min and 81.6 min and 40.2 min and 69 min and 22.8 min and 29.4 min and 41.4 min | Vz (observed) [14]: 63 L and 70 L and 85 L and 196 L and 97 L and 119 L and 118 L and 39 L and 106 L | Cmax [15]: 3370 ng/mL and 2274 ng/mL and 2066 ng/mL and 2161 ng/mL and 493 ng/mL and 4283 ng/mL | Vz (observed) [15]: 57 L and 74 L and 176 L and 488 L and 214 L and 46 L
